Laboratory results taken from patent US7884116B2, “Octahydronaphthalene derivative and medicine” (Nippon Shinyaku Co., Ltd., priority 2003, dated 2011).
pIC50: −log10 of the molar value. Marks after values point to notes of the source that are not given here.

Assays:
[1] = tested on: ICAM-1 expressed on HUVEC; assay: Test about suppression of ICAM-1 expression (enzyme immuno assay, EIA), TNF-α-stimulated HUVEC; type: cell-based; settings: Homo sapiens, TNF-α 0.3 ng/ml
Experimental: Using a culture broth containing serum for vascular endothelial cell (manufactured by Nissui Pharmaceutical Co., Ltd.) as a culture medium, HUVEC (umbilical vein endothelial cell manufactured by Morinaga Bioscience Institute) was cultured in a collagen-treated flask by the routine method.
For carrying out a test about the suppression of ICAM-1 expression with HUVEC, a collagen-treated 96-well plate was used, where HUVEC was added at 1 to 2×10^4 cells/well while the culture medium was added at 100 to 200 μl/well. The cell was cultured in 5% CO2 at 37° C. for 48 to 72 hours. Before adding a test solution, the culture medium (80 μl) was exchanged, to which 10 μl of a test solution preliminarily diluted was then added. The plate was allowed to stand alone in a CO2 incubator. 2 hours later, 10 μl of TNF-α (recombinant human TNF-α, manufactured by Genzyme) was added (to a final concentration of 0.3 ng/ml). The resulting plate was again allowed to stand alone in the CO2 incubator. 16 to 22 hours later, the cell was fixed with 1% p-formaldehyde solution. The cell was rinsed with a phosphate buffer containing Ca^2+ and Mg^2+, which was then treated with an anti-human ICAM-1 antibody (mouse IgG1, manufactured by Kyowa Medics) at ambient temperature for 30 minutes. After the cell was rinsed again with the phosphate buffer, the cell was treated with a peroxide-labeled anti-mouse IgG (H+L) (manufactured by Organon Teknik Corp.) for another 30 minutes. After the cell was again rinsed with the phosphate buffer, the color developed was measured, using a peroxidase chromogenic kit (manufactured by Sumitomo Bakelite Co., Ltd.), to determine ICAM-1 expressed on HUVEC as an expression-inhibiting ratio (%) to a non-drug group to calculate the IC50 value.

Solubility in solvents = type: physicochemical; settings: methanol, chloroform, acetone, water, hexane
[2] = tested on: footpad thickness, MeHSA-sensitized C57BL/6 mouse; assay: Methylated human serum albumin-induced delayed hypersensitivity test (MeHSA-DTH); type: in vivo; settings: oral, twice, footpad thickness 24 hours after induction
Experimental: Methylated human serum albumin (MeHSA) was dissolved in physiological saline to 5 mg/ml, which was then mixed with an equal volume of the complete Freund's adjuvant (manufactured by Iatron), to prepare an emulsion. Next, 100 μl of the prepared emulsion was injected subcutaneously into a 8-week-old male C57BL/6 mouse, for antigen sensitization. Seven days thereafter, MeHSA was dissolved in physiological saline to 1 mg/ml, which was injected at 25 μl subcutaneously into the footpad of the right hind limb, to trigger a reaction. The thickness of the footpad was measured 24 hours after the induction of the reaction, to calculate the difference from the thickness thereof before the induction of the reaction, to make an assessment. Additionally, drugs were orally given twice, namely one hour before the induction of the reaction and 16 hours after the induction thereof.

[3] = reported in non-patent reference 14; cited from earlier work

SMILES | pIC50 [1] | other results
C/C(=C\C=C\[C@@H]1[C@H]2[C@H](C)[C@@H](O)[C@H](C)C[C@@H]2C=C[C@@H]1C)C(=O)N(C)C [Example 20, N,N-Dimethyl-(2E,4E)-5-[(1S,2S,4aR,6R,7S,8S,8aS)-7-hydroxy-2,6,8-trimethyl-1,2,4a,5,6,7,8,8a-octahydronaphthalen-1-yl]-2-methylpenta-2,4-dienamide] | 5.85 | –
CCCCNC(=O)/C(C)=C/C=C/[C@@H]1[C@H]2[C@H](C)[C@@H](O)[C@H](C)C[C@@H]2C=C[C@@H]1C [Example 18, N-(n-Butyl)-(2E,4E)-5-[(1S,2S,4aR,6R,7S,8S,8aS)-7-hydroxy-2,6,8-trimethyl-1,2,4a,5,6,7,8,8a-octahydronaphthalen-1-yl]-2-methylpenta-2,4-dienamide] | 5.62 | –
COc1cccc(CNC(=O)/C(C)=C/C=C/[C@@H]2[C@H]3[C@H](C)[C@@H](O)[C@H](C)C[C@@H]3C=C[C@@H]2C)c1 [Example 9, N-(3-Methoxybenzyl)-(2E,4E)-5-[(1S,2S,4aR,6R,7S,8S,8aS)-7-hydroxy-2,6,8-trimethyl-1,2,4a,5,6,7,8,8a-octahydronaphthalen-1-yl]-2-methylpenta-2,4-dienamide] | 5.68 | –
C/C(=C\C=C\[C@@H]1[C@H]2[C@H](C)[C@@H](O)[C@H](C)C[C@@H]2C=C[C@@H]1C)CO [Example 3, (2E,4E)-5-[(1S,2S,4aR,6R,7S,8S,8aS)-7-Hydroxy-2,6,8-trimethyl-1,2,4a,5,6,7,8,8a-octahydronaphthalen-1-yl]-2-methylpenta-2,4-dien-1-ol] | 5.00 | –
C/C(=C\C=C\[C@@H]1[C@H]2[C@H](C)[C@@H](O)[C@H](C)C[C@@H]2C=C[C@@H]1C)C(=O)NCCc1ccncc1 [Example 13, N-(Pyridin-4-ylethyl)-(2E,4E)-5-[(1S,2S,4aR,6R,7S,8S,8aS)-7-hydroxy-2,6,8-trimethyl-1,2,4a,5,6,7,8,8a-octahydronaphthalen-1-yl]-2-methylpenta-2,4-dienamide] | 5.24 | –
C/C(=C\C=C\[C@@H]1[C@H]2[C@H](C)[C@@H](O)[C@H](C)C[C@@H]2C=C[C@@H]1C)C(=O)NCCc1ccc(O)cc1 [Example 14, N-(4-Hydroxyphenethyl)-(2E,4E)-5-[(1S,2S,4aR,6R,7S,8S,8aS)-7-hydroxy-2,6,8-trimethyl-1,2,4a,5,6,7,8,8a-octahydronaphthalen-1-yl]-2-methylpenta-2,4-dienamide] | 4.82 | –
C/C(=C\C=C\[C@@H]1[C@H]2[C@H](C)[C@@H](O)[C@H](C)C[C@@H]2C=C[C@@H]1C)C(=O)O [Example 1, (2E,4E)-5-[(1S,2S,4aR,6R,7S,8S,8aS)-7-hydroxy-2,6,8-trimethyl-1,2,4a,5,6,7,8,8a-octahydronaphthalen-1-yl]-2-methylpenta-2,4-dienoic acid] | 4.23 | Solubility (Solubility in solvents): soluble in methanol, chloroform and acetone but insoluble in water and hexane
C/C(=C\C=C\[C@@H]1[C@H]2[C@H](C)[C@@H](O)[C@H](C)C[C@@H]2C=C[C@@H]1C)C(=O)Nc1ccccc1 [Example 16, N-Phenyl-(2E,4E)-5-[(1S,2S,4aR,6R,7S,8S,8aS)-7-hydroxy-2,6,8-trimethyl-1,2,4a,5,6,7,8,8a-octahydronaphthalen-1-yl]-2-methylpenta-2,4-dienamide] | 4.82 | –
C/C(=C\C=C\[C@@H]1[C@H]2[C@H](C)[C@@H](O)[C@H](C)C[C@@H]2C=C[C@@H]1C)C(=O)NCc1ccncc1 [Example 6, N-(Pyridin-4-ylmethyl)-(2E,4E)-5-[(1S,2S,4aR,6R,7S,8S,8aS)-7-hydroxy-2,6,8-trimethyl-1,2,4a,5,6,7,8,8a-octahydronaphthalen-1-yl]-2-methylpenta-2,4-dienamide] | 6.23 | Suppression ratio (%) ([2]; 10 mg/kg): 27.8* %; Suppression ratio (%) ([2]; 30 mg/kg): 35.7** %
C/C(=C\C=C\[C@@H]1[C@H]2[C@H](C)[C@@H](O)[C@H](C)C[C@@H]2C=C[C@@H]1C)C(=O)NCc1ccc(Cl)cc1 [Example 10, N-(4-Chlorobenzyl)-(2E,4E)-5-[(1S,2S,4aR,6R,7S,8S,8aS)-7-hydroxy-2,6,8-trimethyl-1,2,4a,5,6,7,8,8a-octahydronaphthalen-1-yl]-2-methylpenta-2,4-dienamide] | 3.85 | –
CNC(=O)/C(C)=C/C=C/[C@@H]1[C@H]2[C@H](C)[C@@H](O)[C@H](C)C[C@@H]2C=C[C@@H]1C [Example 17, N-Methyl-(2E,4E)-5-[(1S,2S,4aR,6R,7S,8S,8aS)-7-hydroxy-2,6,8-trimethyl-1,2,4a,5,6,7,8,8a-octahydronaphthalen-1-yl]-2-methylpenta-2,4-dienamide] | 5.59 | –
C/C(=C\C=C\[C@@H]1[C@H]2[C@H](C)[C@@H](O)[C@H](C)C[C@@H]2C=C[C@@H]1C)C(N)=O [Example 22, (2E,4E)-5-[(1S,2S,4aR,6R,7S,8S,8aS)-7-Hydroxy-2,6,8-trimethyl-1,2,4a,5,6,7,8,8a-octahydronaphthalen-1-yl]-2-methylpenta-2,4-dienamide] | 5.06 | –
C/C(=C\C=C\[C@@H]1[C@H]2[C@H](C)[C@@H](O)[C@H](C)C[C@@H]2C=C[C@@H]1C)C(=O)NCc1ccccn1 [Example 7, N-(Pyridin-2-ylmethyl)-(2E,4E)-5-[(1S,2S,4aR,6R,7S,8S,8aS)-7-hydroxy-2,6,8-trimethyl-1,2,4a,5,6,7,8,8a-octahydronaphthalen-1-yl]-2-methylpenta-2,4-dienamide] | 5.70 | –
C/C(=C\C=C\[C@@H]1[C@H]2[C@H](C)[C@@H](O)[C@H](C)C[C@@H]2C=C[C@@H]1C)C(=O)NCc1ccccc1 [Example 8, N-Benzyl-(2E,4E)-5-[(1S,2S,4aR,6R,7S,8S,8aS)-7-hydroxy-2,6,8-trimethyl-1,2,4a,5,6,7,8,8a-octahydronaphthalen-1-yl]-2-methylpenta-2,4-dienamide] | 6.33 | –
C/C(=C\C=C\[C@@H]1[C@H]2[C@H](C)[C@@H](O)[C@H](C)C[C@@H]2C=C[C@@H]1C)C(=O)NC(C)(C)C [Example 19, N-(t-Butyl)-(2E,4E)-5-[(1S,2S,4aR,6R,7S,8S,8aS)-7-hydroxy-2,6,8-trimethyl-1,2,4a,5,6,7,8,8a-octahydronaphthalen-1-yl]-2-methylpenta-2,4-dienamide] | 4.82 | –
C/C(=C\C=C\[C@@H]1[C@H]2[C@H](C)[C@@H](O)[C@H](C)C[C@@H]2C=C[C@@H]1C)C(=O)NCc1ccc(C)cc1 [Example 11, N-(4-Methylbenzyl)-(2E,4E)-5-[(1S,2S,4aR,6R,7S,8S,8aS)-7-hydroxy-2,6,8-trimethyl-1,2,4a,5,6,7,8,8a-octahydronaphthalen-1-yl]-2-methylpenta-2,4-dienamide] | 3.80 | –
COC(=O)/C(C)=C/C=C/[C@@H]1[C@H]2[C@H](C)[C@@H](O)[C@H](C)C[C@@H]2C=C[C@@H]1C [Example 2, Methyl (2E,4E)-5-[(1S,2S,4aR,6R,7S,8S,8aS)-7-hydroxy-2,6,8-trimethyl-1,2,4a,5,6,7,8,8a-octahydronaphthalen-1-yl]-2-methylpenta-2,4-dienoate] | 6.17 | melting point: 54 to 57 °C
COC(=O)/C=C/C=C/[C@@H]1[C@H]2[C@H](C)[C@@H](O)[C@H](C)C[C@@H]2C=C[C@@H]1C [Coprophilin] | – | Antibacterial activity [3]: has an antibacterial activity
C/C(=C\C=C\[C@@H]1[C@H]2[C@H](C)[C@@H](O)[C@H](C)C[C@@H]2C=C[C@@H]1C)C(=O)N(C)Cc1ccccc1 [Example 21, N-Benzyl-N-methyl-(2E,4E)-5-[(1S,2S,4aR,6R,7S,8S,8aS)-7-hydroxy-2,6,8-trimethyl-1,2,4a,5,6,7,8,8a-octahydronaphthalen-1-yl]-2-methylpenta-2,4-dienamide] | 5.31 | –
